Assay results reported in article PMC9482650, “Quantitative fragmentomics allow affinity mapping of interactomes” (Nature Communications, 2022).
Ends that are not written are not given here.

Experiments:
Experiment in all cases: Holdup assay
Format in all cases: binding
RADIL PDZ = RADIL PDZ (Homo sapiens, UniProt Q96JH8)
GRIP2_2 PDZ = GRIP2_2 PDZ (Homo sapiens, UniProt Q9C0E4)
GOPC PDZ = GOPC PDZ (Homo sapiens, UniProt Q9HD26)
Inadl_5 PDZ = Inadl_5 PDZ (Homo sapiens, UniProt Q8NI35)
Inadl_8 PDZ = Inadl_8 PDZ (Homo sapiens, UniProt Q8NI35)
Chain of Inadl_8 PDZ (Q8NI35 1437-1520 limits assumed): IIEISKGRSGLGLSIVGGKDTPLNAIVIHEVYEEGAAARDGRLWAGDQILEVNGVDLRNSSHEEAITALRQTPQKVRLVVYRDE

MPDZ_10 PDZ = MPDZ_10 PDZ (Homo sapiens, UniProt O75970)
Chain of MPDZ_10 PDZ (O75970 1629-1712 limits assumed): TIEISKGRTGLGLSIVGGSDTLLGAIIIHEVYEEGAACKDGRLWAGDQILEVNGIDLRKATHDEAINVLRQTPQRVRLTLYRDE

MAGI1_4 PDZ = MAGI1_4 PDZ (Homo sapiens, UniProt Q96QZ7)
Chain of MAGI1_4 PDZ (Q96QZ7 813-895 limits assumed): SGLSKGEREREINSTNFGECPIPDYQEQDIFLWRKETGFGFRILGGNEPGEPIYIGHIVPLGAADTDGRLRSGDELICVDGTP

PDZD2_5 PDZ = PDZD2_5 PDZ (Homo sapiens, UniProt O15018); settings: sheet PPI_convert; read-out: affinity to PDZ PDZD2_5 (converted)
Chain of PDZD2_5 PDZ (O15018 2622-2706 limits assumed): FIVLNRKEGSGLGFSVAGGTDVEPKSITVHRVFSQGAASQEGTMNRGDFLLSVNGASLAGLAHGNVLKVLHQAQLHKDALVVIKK

MAGI3_6 PDZ = MAGI3_6 PDZ (Homo sapiens, UniProt Q5TCQ9); settings: sheet PPI_convert; read-out: affinity to PDZ MAGI3_6 (converted)
Chain of MAGI3_6 PDZ (Q5TCQ9 1021-1103 limits assumed): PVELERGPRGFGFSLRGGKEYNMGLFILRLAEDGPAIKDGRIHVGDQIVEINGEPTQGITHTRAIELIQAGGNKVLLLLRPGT

DLG5_2 PDZ = DLG5_2 PDZ (Homo sapiens, UniProt Q8TDM6); settings: sheet PPI_convert; read-out: affinity to PDZ DLG5_2 (converted)
Chain of DLG5_2 PDZ (Q8TDM6 705-796 limits assumed): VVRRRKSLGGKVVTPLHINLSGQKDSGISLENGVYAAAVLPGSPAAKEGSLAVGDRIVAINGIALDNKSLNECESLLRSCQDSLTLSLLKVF

IL16_2 PDZ = IL16_2 PDZ (Homo sapiens, UniProt Q14005); settings: sheet PPI_convert; read-out: affinity to PDZ IL16_2 (converted)
Chain of IL16_2 PDZ (Q14005 355-440 limits assumed): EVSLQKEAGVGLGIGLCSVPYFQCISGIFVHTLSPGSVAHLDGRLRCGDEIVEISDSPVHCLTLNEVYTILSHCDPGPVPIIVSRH

MAGI3_4 PDZ = MAGI3_4 PDZ (Homo sapiens, UniProt Q5TCQ9); settings: sheet PPI_convert; read-out: affinity to PDZ MAGI3_4 (converted)
Chain of MAGI3_4 PDZ (Q5TCQ9 726-808 limits assumed): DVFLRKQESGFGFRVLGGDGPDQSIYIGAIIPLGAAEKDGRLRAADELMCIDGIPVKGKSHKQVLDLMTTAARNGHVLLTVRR

MPP3 PDZ = MPP3 PDZ (Homo sapiens, UniProt Q13368); settings: sheet PPI_convert; read-out: affinity to PDZ MPP3 (converted)
Chain of MPP3 PDZ (Q13368 137-212 limits assumed): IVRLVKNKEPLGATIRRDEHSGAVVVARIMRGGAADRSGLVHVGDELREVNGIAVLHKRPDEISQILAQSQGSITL

MAGI2_6 PDZ = MAGI2_6 PDZ (Homo sapiens, UniProt Q86UL8); settings: composite holdup affinity; 0.00=below quantification threshold; read-out: COMP pKd (converted)
Chain of MAGI2_6 PDZ (Q86UL8 1147-1229 limits assumed): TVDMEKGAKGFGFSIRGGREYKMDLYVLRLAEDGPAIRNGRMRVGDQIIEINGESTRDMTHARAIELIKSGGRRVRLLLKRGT

MAGI1_3 PDZ = MAGI1_3 PDZ (Homo sapiens, UniProt Q96QZ7); settings: sheet PPI_convert; read-out: affinity to PDZ MAGI1_3 (converted)
Chain of MAGI1_3 PDZ (Q96QZ7 643-721 limits assumed): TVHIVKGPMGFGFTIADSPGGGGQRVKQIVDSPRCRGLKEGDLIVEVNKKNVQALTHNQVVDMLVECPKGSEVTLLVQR

MAGIX PDZ = MAGIX PDZ (Homo sapiens, UniProt Q9H6Y5); settings: sheet PPI_convert; read-out: affinity to PDZ MAGIX (converted)
Chain of MAGIX PDZ (Q9H6Y5 125-209): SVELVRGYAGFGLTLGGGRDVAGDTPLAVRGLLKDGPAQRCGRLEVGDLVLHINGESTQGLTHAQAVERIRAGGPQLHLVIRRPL
Source text: Supplement 41467_2022_33018_MOESM4_ESM.xlsx, sheet "PPI_convert" | column: MAGIX

MAGI1_5 PDZ = MAGI1_5 PDZ (Homo sapiens, UniProt Q96QZ7); settings: sheet PPI_convert; read-out: affinity to PDZ MAGI1_5 (converted)
Chain of MAGI1_5 PDZ (Q96QZ7 970-1066 limits assumed): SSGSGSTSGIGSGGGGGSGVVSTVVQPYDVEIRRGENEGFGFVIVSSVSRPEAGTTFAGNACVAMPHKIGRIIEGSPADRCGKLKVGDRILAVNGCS

MPDZ_13 PDZ = MPDZ_13 PDZ (Homo sapiens, UniProt O75970); settings: sheet PPI_convert; read-out: affinity to PDZ MPDZ_13 (converted)
Chain of MPDZ_13 PDZ (O75970 1987-2070 limits assumed): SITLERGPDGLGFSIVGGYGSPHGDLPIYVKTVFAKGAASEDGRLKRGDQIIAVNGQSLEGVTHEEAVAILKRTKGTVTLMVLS

NHERF4_3 PDZ = NHERF4_3 PDZ (Homo sapiens, UniProt Q86UT5); settings: sheet PPI_convert; read-out: affinity to PDZ NHERF4_3 (converted)
Chain of NHERF4_3 PDZ (Q86UT5 329-412 limits assumed): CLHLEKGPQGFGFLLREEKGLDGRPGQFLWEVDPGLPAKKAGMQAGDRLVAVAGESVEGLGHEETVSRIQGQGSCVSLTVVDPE

PARD3B_3 PDZ = PARD3B_3 PDZ (Homo sapiens, UniProt Q8TEW8); settings: sheet PPI_convert; read-out: affinity to PDZ PARD3B_3 (converted)
Chain of PARD3B_3 PDZ (Q8TEW8 498-585 limits assumed): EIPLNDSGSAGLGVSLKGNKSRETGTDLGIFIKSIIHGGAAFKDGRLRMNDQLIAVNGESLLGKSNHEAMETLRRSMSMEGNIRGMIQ

MLLT4 PDZ = MLLT4 PDZ (Homo sapiens, UniProt P55196); settings: sheet PPI_convert; read-out: affinity to PDZ MLLT4 (converted)
Chain of MLLT4 PDZ (P55196 1007-1093 limits assumed): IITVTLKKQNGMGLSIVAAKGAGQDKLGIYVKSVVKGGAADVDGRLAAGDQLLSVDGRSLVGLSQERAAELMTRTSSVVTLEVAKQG
Source text: Supplement 41467_2022_33018_MOESM4_ESM.xlsx, sheet "PPI_convert" | column: MLLT4

MAGI1_6 PDZ = MAGI1_6 PDZ (Homo sapiens, UniProt Q96QZ7); settings: sheet PPI_convert; read-out: affinity to PDZ MAGI1_6 (converted)
Chain of MAGI1_6 PDZ (Q96QZ7 1124-1206 limits assumed): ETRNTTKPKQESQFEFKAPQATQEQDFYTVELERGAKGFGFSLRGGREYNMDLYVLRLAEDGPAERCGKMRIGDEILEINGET

NHERF2_1 PDZ = NHERF2_1 PDZ (Homo sapiens, UniProt Q15599); settings: sheet PPI_convert; read-out: affinity to PDZ NHERF2_1 (converted)
Chain of NHERF2_1 PDZ (Q15599 11-90 limits assumed): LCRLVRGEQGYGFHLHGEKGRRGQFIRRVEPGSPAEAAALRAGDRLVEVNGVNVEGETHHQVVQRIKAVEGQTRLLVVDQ

PDLIM4 PDZ = PDLIM4 PDZ (Homo sapiens, UniProt P50479); settings: sheet PPI_convert; read-out: affinity to PDZ PDLIM4 (converted)
Chain of PDLIM4 PDZ (P50479 1-84 limits assumed): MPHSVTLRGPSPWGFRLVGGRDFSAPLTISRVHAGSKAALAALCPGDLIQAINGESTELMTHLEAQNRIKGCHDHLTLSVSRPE
Source text: Supplement 41467_2022_33018_MOESM4_ESM.xlsx, sheet "PPI_convert" | column: PDLIM4

PDZD4 PDZ = PDZD4 PDZ (Homo sapiens, UniProt Q76G19); settings: sheet PPI_convert; read-out: affinity to PDZ PDZD4 (converted)
Chain of PDZD4 PDZ (Q76G19 130-214 limits assumed): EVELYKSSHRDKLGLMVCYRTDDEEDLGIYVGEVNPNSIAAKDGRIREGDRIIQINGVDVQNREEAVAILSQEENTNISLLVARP
Source text: Supplement 41467_2022_33018_MOESM4_ESM.xlsx, sheet "PPI_convert" | column: PDZD4

DLG5_4 PDZ = DLG5_4 PDZ (Homo sapiens, UniProt Q8TDM6); settings: sheet PPI_convert; read-out: affinity to PDZ DLG5_4 (converted)
Chain of DLG5_4 PDZ (Q8TDM6 1501-1582 limits assumed): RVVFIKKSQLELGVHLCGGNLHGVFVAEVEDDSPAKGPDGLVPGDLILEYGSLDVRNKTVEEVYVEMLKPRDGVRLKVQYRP

Chain of GRIP2_2 PDZ (Q9C0E4 148-234 limits assumed): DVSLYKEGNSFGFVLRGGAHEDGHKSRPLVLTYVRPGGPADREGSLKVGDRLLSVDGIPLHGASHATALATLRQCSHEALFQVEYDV
Chain of Inadl_5 PDZ (Q8NI35 686-772 limits assumed): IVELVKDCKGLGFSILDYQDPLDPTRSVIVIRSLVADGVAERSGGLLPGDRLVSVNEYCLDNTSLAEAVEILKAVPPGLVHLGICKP
Chain of RADIL PDZ (Q96JH8 976-1061 limits assumed): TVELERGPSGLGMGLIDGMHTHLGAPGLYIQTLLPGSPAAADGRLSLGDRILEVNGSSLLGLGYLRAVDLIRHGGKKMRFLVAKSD

CC(C)C[C@H](NC(=O)[C@@H](N)CCCNC(=N)N)C(=O)N[C@@H](CCC(N)=O)C(=O)N[C@@H](CCCNC(=N)N)C(=O)N[C@@H](CCCNC(=N)N)C(=O)N[C@@H](CCCNC(=N)N)C(=O)N[C@@H](CCC(=O)O)C(=O)N[C@H](C(=O)N[C@@H](CCC(N)=O)C(=O)N[C@H](C(=O)O)C(C)C)[C@@H](C)O [HPV18-E6]
Kd (RADIL PDZ): 525 µM
Kd (GRIP2_2 PDZ): 33.1 µM
Kd (GOPC PDZ): 661 µM
Kd (Inadl_5 PDZ): 302 µM
Kd (Inadl_8 PDZ): 479 µM
Kd (MPDZ_10 PDZ): 275 µM
Kd (MAGI1_4 PDZ): 52.5 µM

SKPTRRETEV [HPV35-E6]
Kd (PDZD2_5 PDZ): 170 µM
Kd (MAGI3_6 PDZ): 155 µM
Kd (DLG5_2 PDZ): 19.1 µM
Kd (IL16_2 PDZ): 269 µM
Kd (MAGI3_4 PDZ): 174 µM
Kd (MPP3 PDZ): 200 µM
Kd (MAGI2_6 PDZ): 324 µM
Kd (MAGI1_3 PDZ): 81.3 µM
Kd (MAGIX PDZ): 275 µM
Kd (MAGI1_5 PDZ): 37.2 µM
Kd (MPDZ_13 PDZ): 170 µM
Kd (NHERF4_3 PDZ): 166 µM
Kd (PARD3B_3 PDZ): 186 µM
Kd (MLLT4 PDZ): 162 µM
Kd (MAGI1_6 PDZ): 219 µM
Kd (NHERF2_1 PDZ): 170 µM
Kd (PDLIM4 PDZ): 69.2 µM
Kd (PDZD4 PDZ): 282 µM
Kd (DLG5_4 PDZ): 219 µM
